These results are taken from patent publication US20130324532A1 (priority 2011, published 2013).

Each structure is given as a SMILES string. Read-outs that look alike come from different tables or passages of the source.

The target of test [1] is FAK enzyme (catalytic domain, amino acids 411-686) (Homo sapiens, UniProt Q05397). Nature of the test: biochemical.
In test [2] the target is N-terminally GST-fused purified FAK enzyme (Homo sapiens, UniProt Q05397). Nature of the test: biochemical.
Description: Binding parameters of compounds were determined using a Biacore™ S51 sensor. An anti-GST antibody was immobilized onto a CM5 chip by primary amine-coupling in accordance with the manufacturer's recommendations.
Concentration series' of the test compounds were injected over the spots at 25° C.
After the injection cycle of a compound the chip surface was regenerated with 10 mM glycine-HCl, pH2.2 before capturing the enzyme again.
Test [3] addresses T1, VEGFR3 cytoplasmic domain (Homo sapiens, UniProt P35916, DEL949-1002).
T1 construct: VEGFR3 cytoplasmic domain (amino acids 798-1298) was purchased as N-terminal GST-fusion protein; purchased
Put plainly: biochemical.

For test [4], the system named is MDA-231-LNA cells. Put plainly: cells. To be noted: 72 h.
Test [5] concerns the target VEGFR3 cytoplasmic domain (Homo sapiens, UniProt P35916). Nature of the test: biochemical.
For test [6], the target named is T2, Phospho VEGFR3 (Flt4) in HMVEC-dLyAD cells (Homo sapiens, UniProt P35916).
T2 construct: host or cells: HMVEC-dLyAD (adult human dermal lymphatic microvascular endothelial cells)
T2 sequence (P35916 25-1363): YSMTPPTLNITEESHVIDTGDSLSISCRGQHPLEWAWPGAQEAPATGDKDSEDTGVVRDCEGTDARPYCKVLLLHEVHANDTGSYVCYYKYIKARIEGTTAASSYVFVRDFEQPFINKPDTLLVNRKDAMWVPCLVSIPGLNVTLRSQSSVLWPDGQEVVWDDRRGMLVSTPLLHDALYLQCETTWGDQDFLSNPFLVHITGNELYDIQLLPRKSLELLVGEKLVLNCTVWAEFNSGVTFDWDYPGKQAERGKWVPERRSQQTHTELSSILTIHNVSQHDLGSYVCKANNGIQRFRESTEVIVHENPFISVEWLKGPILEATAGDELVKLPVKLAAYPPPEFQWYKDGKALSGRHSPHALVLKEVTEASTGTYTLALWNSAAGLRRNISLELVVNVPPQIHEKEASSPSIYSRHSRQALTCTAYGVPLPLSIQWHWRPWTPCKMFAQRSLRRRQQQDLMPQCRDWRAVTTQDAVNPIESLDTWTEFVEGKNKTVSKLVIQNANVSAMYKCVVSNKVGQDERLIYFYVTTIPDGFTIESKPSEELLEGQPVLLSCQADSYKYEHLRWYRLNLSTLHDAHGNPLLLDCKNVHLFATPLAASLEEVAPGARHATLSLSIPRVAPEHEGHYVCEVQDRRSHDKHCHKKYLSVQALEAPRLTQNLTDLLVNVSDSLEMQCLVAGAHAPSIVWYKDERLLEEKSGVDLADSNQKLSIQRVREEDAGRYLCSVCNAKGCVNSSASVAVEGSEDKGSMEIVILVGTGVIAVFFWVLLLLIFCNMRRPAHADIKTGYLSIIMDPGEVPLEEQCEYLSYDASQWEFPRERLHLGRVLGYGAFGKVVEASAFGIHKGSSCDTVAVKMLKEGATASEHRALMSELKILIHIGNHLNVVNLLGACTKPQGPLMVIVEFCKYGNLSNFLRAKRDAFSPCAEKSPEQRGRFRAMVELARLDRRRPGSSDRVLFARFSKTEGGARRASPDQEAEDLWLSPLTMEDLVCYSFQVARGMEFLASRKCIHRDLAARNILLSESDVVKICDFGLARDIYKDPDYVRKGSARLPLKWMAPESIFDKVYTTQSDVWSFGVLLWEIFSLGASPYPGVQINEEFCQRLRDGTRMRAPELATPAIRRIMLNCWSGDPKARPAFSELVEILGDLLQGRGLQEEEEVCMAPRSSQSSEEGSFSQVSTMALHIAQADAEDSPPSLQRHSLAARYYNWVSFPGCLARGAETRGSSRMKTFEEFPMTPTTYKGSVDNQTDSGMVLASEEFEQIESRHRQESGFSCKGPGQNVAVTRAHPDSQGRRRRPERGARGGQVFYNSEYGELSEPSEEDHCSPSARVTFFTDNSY
Put plainly: Flt4 Phospho ELISA assay. The class given is cell-based. For orientation: ELISA stands for enzyme-linked immunosorbent assay.
Description: The ability of compounds of the invention to inhibit VEGFR3 within cells can be assessed with an ELISA type assay.
The plates were covered and incubated at room temperature overnight.
300 μL of Blocking buffer (5% v/v Tween 20, 5% w/v sucrose in PBS) was then added to wells and plate incubated for 2 hours at room temperature. Blocking solution is flicked out and plates washed three times and tapped dry.
Compound dilution series were prepared in Endogro basal (Cat # SCME-BM, Millipore)+0.1% BSA (Cat#A8412, Sigma) with constant 0.1% DMSO concentration. 439 μL of sample or vehicle control was added to the cell monolayers.
130 μL of Lysis buffer added to wells and cell lysate harvested and transferred to tubes and stored on ice.
The plates were then washed three times in wash buffer as described above and tapped dry. […]
Total VEGFR3 levels were quantified using a Multiskan Ascent plate reader and Ascent software fitted with 450 nm filter. […]
Phospho VEGFR3 levels were quantified using a Multiscan ascent plate reader and ascent software fitted with 450 nm filter.
where SRP is the Sample Relative Phospho level, SP is Phospho VEGFR3 reading and ST is Total VEGFR3 reading.
Percent inhibition (% I) for each lysate relative to vehicle control (VEGF-C stimulated) is then calculated according to the following formula:
where SRP is the Sample Relative Phospho level as calculated above. […]

Test [7] has as its system HeyA8, SKOV3ip1, and HeyA8-MDR models. To be noted: cited from earlier work.
For test [8], the system named is taxane-sensitive (SKOV3ip1 and HeyA8) and taxane-resistant (HeyA8-MDR) ovarian cancer cell lines. To be noted: in vitro; cited from earlier work.

Sequence of FAK enzyme (catalytic domain, amino acids 411-686) (Q05397 411-686, species assumed): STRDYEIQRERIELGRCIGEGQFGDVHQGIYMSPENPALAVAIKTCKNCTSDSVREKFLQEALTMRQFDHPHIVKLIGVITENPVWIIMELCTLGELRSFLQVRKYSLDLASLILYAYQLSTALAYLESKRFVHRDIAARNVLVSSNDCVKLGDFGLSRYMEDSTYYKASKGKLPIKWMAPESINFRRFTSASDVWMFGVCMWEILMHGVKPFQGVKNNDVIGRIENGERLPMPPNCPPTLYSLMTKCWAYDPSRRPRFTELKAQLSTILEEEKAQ
Sequence of VEGFR3 cytoplasmic domain (Homo sapiens, UniProt P35916) (P35916 other isoform, or with tags, fused parts or gaps): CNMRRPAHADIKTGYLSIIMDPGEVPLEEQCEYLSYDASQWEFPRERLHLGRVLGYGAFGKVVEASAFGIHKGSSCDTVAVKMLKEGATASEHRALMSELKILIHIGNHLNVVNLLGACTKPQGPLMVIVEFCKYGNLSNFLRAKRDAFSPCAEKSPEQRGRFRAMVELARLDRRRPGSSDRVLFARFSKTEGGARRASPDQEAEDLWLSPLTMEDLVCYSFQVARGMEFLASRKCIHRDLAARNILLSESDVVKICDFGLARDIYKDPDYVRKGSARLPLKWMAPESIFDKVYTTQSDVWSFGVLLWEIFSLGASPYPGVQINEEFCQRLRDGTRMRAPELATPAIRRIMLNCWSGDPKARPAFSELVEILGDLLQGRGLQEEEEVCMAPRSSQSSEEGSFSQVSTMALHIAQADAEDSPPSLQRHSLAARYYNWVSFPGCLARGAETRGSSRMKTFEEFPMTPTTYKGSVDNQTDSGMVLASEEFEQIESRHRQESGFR
Sequence of N-terminally GST-fused purified FAK enzyme (Q05397 whole entry, the tested form may be a part): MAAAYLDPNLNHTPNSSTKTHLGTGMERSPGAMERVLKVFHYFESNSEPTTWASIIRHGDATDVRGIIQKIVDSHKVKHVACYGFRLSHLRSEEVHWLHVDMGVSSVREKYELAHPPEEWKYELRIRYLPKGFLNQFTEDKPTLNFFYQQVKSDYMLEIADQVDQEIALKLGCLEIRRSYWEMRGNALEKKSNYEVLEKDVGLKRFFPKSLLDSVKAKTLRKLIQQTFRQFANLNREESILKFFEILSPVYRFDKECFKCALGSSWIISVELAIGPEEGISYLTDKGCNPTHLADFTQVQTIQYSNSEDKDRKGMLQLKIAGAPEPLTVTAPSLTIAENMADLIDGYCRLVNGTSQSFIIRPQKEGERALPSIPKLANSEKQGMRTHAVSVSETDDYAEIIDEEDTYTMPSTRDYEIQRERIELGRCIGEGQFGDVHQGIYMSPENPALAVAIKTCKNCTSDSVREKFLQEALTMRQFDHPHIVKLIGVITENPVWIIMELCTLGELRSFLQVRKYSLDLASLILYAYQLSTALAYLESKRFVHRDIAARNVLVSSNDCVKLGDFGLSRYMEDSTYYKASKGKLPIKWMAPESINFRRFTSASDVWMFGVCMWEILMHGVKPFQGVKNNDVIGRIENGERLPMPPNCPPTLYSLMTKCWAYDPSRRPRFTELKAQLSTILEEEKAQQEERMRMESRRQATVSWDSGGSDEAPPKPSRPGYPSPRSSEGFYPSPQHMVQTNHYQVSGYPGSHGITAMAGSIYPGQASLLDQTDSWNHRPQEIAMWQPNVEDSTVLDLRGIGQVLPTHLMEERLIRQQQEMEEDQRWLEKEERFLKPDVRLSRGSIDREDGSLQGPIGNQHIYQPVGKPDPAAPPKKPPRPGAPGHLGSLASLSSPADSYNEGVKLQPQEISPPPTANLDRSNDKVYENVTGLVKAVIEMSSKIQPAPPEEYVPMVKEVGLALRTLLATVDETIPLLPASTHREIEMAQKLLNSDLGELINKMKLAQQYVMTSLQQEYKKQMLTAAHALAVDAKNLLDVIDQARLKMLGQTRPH
T1 sequence (P35916 with tags, fused parts or gaps DEL949-1002): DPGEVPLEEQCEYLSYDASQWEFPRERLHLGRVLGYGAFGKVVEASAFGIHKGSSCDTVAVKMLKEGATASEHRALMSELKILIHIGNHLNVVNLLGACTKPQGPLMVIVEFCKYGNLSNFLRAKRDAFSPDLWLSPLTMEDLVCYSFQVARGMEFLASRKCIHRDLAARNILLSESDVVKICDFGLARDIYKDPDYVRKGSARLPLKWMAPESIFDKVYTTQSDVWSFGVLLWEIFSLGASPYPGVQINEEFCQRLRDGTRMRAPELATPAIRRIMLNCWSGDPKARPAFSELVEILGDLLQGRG

As for `NC(=O)Cc1ccccc1CCc1nc(Nc2ccc(N3CCNCC3)cc2)ncc1C(F)(F)F` [Compound 1, 2-(2-(2-(2-((4-(piperazin-1-yl)phenyl)amino)-5-(trifluoromethyl)pyrimidin-4-yl)ethyl)phenyl)acetamide], in test [1], it took 2.1 nM to reach half-maximal inhibition (IC50). Besides, the Kd (in general, the concentration at which binding is half-saturated) in test [2] is 0.49 nM.

As for `CN1CCN(c2ccc(Nc3ncc(C(F)(F)F)c(CCc4cccc(C(N)=O)c4)n3)cc2)CC1` [Compound 2, 3-(2-(2-((4-(4-Methylpiperazin-1-yl)phenyl)amino)-5-(trifluoromethyl)pyrimidin-4-yl)ethyl)benzamide], the IC50 (usually the concentration needed to halve the response being measured) stood at 2.5 nM in test [1]; 120 nM in test [3] (modified form (*): N-terminal Hexa-His-fusion protein, amino acids 818-1177 lacking 949-1002, read-out: IC50); 3210 nM in test [4]. In addition, in test [2], the affinity, expressed as Kd, was 1.5 nM.

`CN1CCN(c2ccc(Nc3ncc(C(F)(F)F)c(CCc4ccccc4CC(N)=O)n3)cc2)CC1` [Compound 3]: the IC50 in test [1] amounted to 1.9 nM. Further, binding in test [2] was put at a Kd of 0.91 nM.

Molecule `NC(=O)Cc1ccccc1CCc1nc(Nc2ccc(C3CCCNC3)cc2)ncc1C(F)(F)F` (centres unmarked) [Compound 4, 2-(2-(2-(2-((4-(Piperidin-3-yl)phenyl)amino)-5-(trifluoromethyl)pyrimidin-4-yl)ethyl)phenyl)acetamide] returned an IC50 in test [1] of 1.5 nM. For the same molecule, the Kd in test [2] came to 0.73 nM.

For `CN1CCN(c2cccc(Nc3ncc(C(F)(F)F)c(CCc4cccc(C(N)=O)c4)n3)c2)CC1` [Compound 6, 3-(2-(2-((3-(4-Methylpiperazin-1-yl)phenyl)amino)-5-(trifluoromethyl)pyrimidin-4-yl)ethyl)benzamide], the IC50 in test [1] was 4.2 nM; in test [5] it was 52 nM; in test [4], 3910 nM. This molecule also had a Kd in test [2] of 6.3 nM.

`NC(=O)Cc1ccccc1CCc1nc(Nc2ccc(C3CCCCN3)cc2)ncc1C(F)(F)F` (centres unmarked) [Compound 8, 2-(2-(2-(2-((4-(Piperidin-2-yl)phenyl)amino)-5-(trifluoromethyl)pyrimidin-4-yl)ethyl)phenyl)acetamide]: the IC50 in test [1] stood at 6.1 nM. In test [2], this molecule returned a Kd of 1 nM.

`CN1CCCCC1c1ccc(Nc2ncc(C(F)(F)F)c(CCc3ccccc3CC(N)=O)n2)cc1` (centres unmarked) [Compound 9]: it took 7 nM to reach half-maximal inhibition in test [1] (IC50). In test [2], this molecule yielded a Kd of 7 nM.

In test [1], `NC(=O)Cc1ccccc1CCc1nc(Nc2ccc(C3CCNCC3)cc2)ncc1C(F)(F)F` [Compound 11, 2-(2-(2-(2-((4-(Piperidin-4-yl)phenyl)amino)-5-(trifluoromethyl)pyrimidin-4-yl)ethyl)phenyl)acetamide] came in with an IC50 of 3 nM. In test [2], this molecule yielded a Kd of 0.61 nM.

On to `CC(C(N)=O)c1ccccc1CCc1nc(Nc2ccc(C3CCNCC3)cc2)ncc1C(F)(F)F` (centres unmarked) [Compound 12, 2-(2-(2-(2-((4-(Piperidin-4-yl)phenyl)amino)-5-(trifluoromethyl)pyrimidin-4-yl)ethyl)phenyl)propanamide], for which, in test [1], the IC50 is 6.3 nM. In test [2], binding was characterised by a dissociation constant (Kd) of 0.92 nM.

With `CNC(=O)Cc1ccccc1CCc1nc(Nc2ccc(N3CCNCC3)cc2)ncc1C(F)(F)F` [Compound 14, N-Methyl-2-(2-(2-(2-((4-(piperazin-1-yl)phenyl)amino)-5-(trifluoromethyl)pyrimidin-4-yl)ethyl)phenyl)acetamide], the concentration for half-maximal inhibition (IC50) in test [1] worked out at 21 nM; in test [5] it was 101 nM; in test [4] it was 4490 nM. Besides, the Kd in test [2] worked out at 6.1 nM.

On to `O=C1NCc2cccc(CCc3nc(Nc4ccc(N5CCNCC5)cc4)ncc3C(F)(F)F)c21` [Compound 15, 7-(2-(2-((4-(piperazin-1-yl)phenyl)amino)-5-(trifluoromethyl)pyrimidin-4-yl)ethyl)isoindolin-1-one], for which the results for the IC50 in test [1], in test [5] (read-out: IC50) and in test [4] were 18 nM, 37 nM and 2370 nM, respectively. In test [2], this molecule yielded a Kd of 5 nM.

With `CN1CCN(c2cccc(Nc3ncc(C(F)(F)F)c(CCc4ccccc4CC(N)=O)n3)c2)CC1` [Compound 17, 2-(2-(2-(2-((3-(4-Methylpiperazin-1-yl)phenyl)amino)-5-(trifluoromethyl)pyrimidin-4-yl)ethyl)phenyl)acetamide], the IC50 worked out at 3.4 nM in test [1], 31 nM in test [5], 3510 nM in test [4] and 44 nM in test [6]. In test [2], the Kd came to 3.5 nM.

On to `CNC(=O)Cc1ccccc1CCc1nc(Nc2cccc(N3CCN(C)CC3)c2)ncc1C(F)(F)F` [Compound 18], for which the IC50 was 13 nM in test [1], 664 nM in test [5] and > 5000 nM in test [4]. For the same molecule, in test [2], binding was put at a Kd of 13 nM.

In the case of `Cc1ccc(CCc2nc(Nc3ccc(N4CCNCC4)cc3)ncc2C(F)(F)F)cc1C(N)=O` [Compound 19, 2-Methyl-5-(2-(2-((4-(piperazin-1-yl)phenyl)amino)-5-(trifluoromethyl)pyrimidin-4-yl)ethyl)benzamide], the IC50 in test [1] amounted to 7.7 nM; in test [5], 37 nM; in test [4] it was 1490 nM. The Kd in test [2] is 7.8 nM.

Consider `NC(=O)Cc1ccccc1CCc1nc(Nc2ccc(N3CCC(N)CC3)cc2)ncc1C(F)(F)F` [Compound 20, 2-(2-(2-(2-((4-(4-Aminopiperidin-1-yl)phenyl)amino)-5-(trifluoromethyl)pyrimidin-4-yl)ethyl)phenyl)acetamide], for which the IC50 in test [1] worked out at 0.81 nM. In test [2], the Kd was found to be 0.63 nM.

Turning to `NC(=O)Cc1ccccc1CCc1nc(Nc2ccc3c(c2)CCNC3)ncc1C(F)(F)F` [Compound 21, 2-(2-(2-(2-((1,2,3,4-Tetrahydroisoquinolin-6-yl)amino)-5-(trifluoromethyl)pyrimidin-4-yl)ethyl)phenyl)acetamide], in test [1], the IC50 stood at 2.4 nM. The affinity in test [2], expressed as Kd, was 0.44 nM.

In test [1], `NC(=O)Cc1ccccc1CCc1nc(Nc2ccc(C3CNCCO3)cc2)ncc1C(F)(F)F` (centres unmarked) [Compound 22, 2-(2-(2-(2-((4-(morpholin-2-yl)phenyl)amino)-5-(trifluoromethyl)pyrimidin-4-yl)ethyl)phenyl)acetamide] showed an IC50 of 2.8 nM. In test [2], this molecule showed a Kd of 0.99 nM.

`NC(=O)Cc1ccccc1CCc1nc(Nc2ccc(CN3CCNCC3)cc2)ncc1C(F)(F)F` [Compound 25, 2-(2-(2-(2-((4-(piperazin-1-ylmethyl)phenyl)amino)-5-(trifluoromethyl)pyrimidin-4-yl)ethyl)phenyl)acetamide] showed an IC50 in test [4] of 2890 nM.

`NC(=O)Cc1nccnc1CCc1nc(Nc2ccc(C3CCNCC3)cc2)ncc1C(F)(F)F` [Compound 26, 2-(3-(2-(2-((4-(Piperidin-4-yl)phenyl)amino)-5-(trifluoromethyl)pyrimidin-4-yl)ethyl)pyrazin-2-yl)acetamide]: the IC50 in test [1] was 20 nM. This molecule also displayed a Kd in test [2] of 14 nM.

The molecule `NC(=O)Cc1cncnc1CCc1nc(Nc2ccc(C3CCNCC3)cc2)ncc1C(F)(F)F` [Compound 29, 2-(4-(2-(2-((4-(Piperidin-4-yl)phenyl)amino)-5-(trifluoromethyl)pyrimidin-4-yl)ethyl)pyrimidin-5-yl)acetamide] had an IC50 in test [1] of 11 nM. This molecule returned a Kd in test [2] of 12.1 nM.

As for `CCN1CCC(c2ccc(Nc3ncc(C(F)(F)F)c(CCc4ccccc4CC(N)=O)n3)cc2)CC1` [Compound 31, 2-(2-(2-(2-((4-(1-Ethylpiperidin-4-yl)phenyl)amino)-5-(trifluoromethyl)pyrimidin-4-yl)ethyl)phenyl)acetamide], the Kd in test [2] was determined as 1 nM.

`CN1CCC(c2ccc(Nc3ncc(C(F)(F)F)c(CCc4cc(C(N)=O)ccn4)n3)cc2)CC1` [Compound 34, 2-(2-(2-((4-(1-Methylpiperidin-4-yl)phenyl)amino)-5-(trifluoromethyl)pyrimidin-4-yl)ethyl)isonicotinamide]: the values for the IC50 in test [1], in test [3] and in test [4] were 5.7 nM, 184 nM and 7850 nM, respectively. The same molecule came in with a Kd in test [2] of 5 nM.

Regarding `CN1CCN(Cc2ccc(Nc3ncc(C(F)(F)F)c(CCc4ccccc4CC(N)=O)n3)cc2)CC1` [Compound 36, 2-(2-(2-(2-((4-((4-Methylpiperazin-1-yl)methyl)phenyl)amino)-5-(trifluoromethyl)pyrimidin-4-yl)ethyl)phenyl)acetamide], the IC50 in test [1] came out at 2.3 nM; in test [5] it was 16 nM; in test [4] it was 5620 nM; in test [6], 169 nM. In addition, binding in test [2] was characterised by a dissociation constant (Kd) of 0.48 nM.

For `NC(=O)c1cccc(CCc2nc(Nc3ccc(CN4CCNCC4)cc3)ncc2C(F)(F)F)c1` [Compound 37, 3-(2-(2-((4-(piperazin-1-ylmethyl)phenyl)amino)-5-(trifluoromethyl)pyrimidin-4-yl)ethyl)benzamide], the IC50 came to 15 nM in test [1], 254 nM in test [5] and 2790 nM in test [4].

As for `CNC(=O)c1ccccc1Nc1nc(Nc2ccc(N3CCOCC3)cc2OC)ncc1Cl` [TAE226], the “reduced tumour burden compared with vehicle-treated controls” value in test [7] (TAE226 alone, HeyA8, SKOV3ip1, HeyA8-MDR models) is recorded as 46-64%. For the same molecule, the tumour burden reduction in test [7] (concomitant administration of TAE226 and docetaxel, all three models) was 85-97%. Also, in test [7] (in combination with docetaxel), the “survival in tumour-bearing mice” value is on record as “significantly prolonged survival”. The “phosphorylation of FAK at both Y397 and Y861 sites” value in test [8] was “inhibited”.
